Numbers after ± are expanded uncertainties.
Settings: Liquid, Vibrating tube method

CCCCCCCCCC [decane]
Settings | mass density [kg/m3]
293.15 K, 34214 kPa | 753.1 ± 2.1
293.15 K, 34239 kPa | 753.1 ± 2.1
293.15 K, 34259 kPa | 753.1 ± 2.1
293.15 K, 34285 kPa | 753.1 ± 2.1
293.15 K, 34303 kPa | 753.1 ± 2.1
293.16 K, 19215 kPa | 743.7 ± 2
293.16 K, 19235 kPa | 743.6 ± 2
293.16 K, 19274 kPa | 743.8 ± 2
293.16 K, 19292 kPa | 743.6 ± 2
293.16 K, 19437 kPa | 743.9 ± 2
293.16 K, 33877 kPa | 753 ± 2.1
303.14 K, 364 kPa | 722.4 ± 2
303.14 K, 380 kPa | 722.3 ± 2
303.14 K, 402 kPa | 722.5 ± 2
303.14 K, 424 kPa | 722.6 ± 2
303.14 K, 441 kPa | 722.6 ± 2
303.14 K, 462 kPa | 722.5 ± 2
303.14 K, 488 kPa | 722.6 ± 2
303.14 K, 520 kPa | 722.6 ± 2
303.14 K, 547 kPa | 722.7 ± 2
303.14 K, 571 kPa | 722.7 ± 2
303.14 K, 602 kPa | 722.8 ± 2
303.14 K, 632 kPa | 722.7 ± 2
303.14 K, 677 kPa | 722.6 ± 2
303.14 K, 720 kPa | 722.8 ± 2
303.14 K, 760 kPa | 722.8 ± 2
303.14 K, 810 kPa | 722.9 ± 2
303.14 K, 862 kPa | 723 ± 2
303.14 K, 904 kPa | 723 ± 2
303.14 K, 946 kPa | 723 ± 2
303.14 K, 997 kPa | 723 ± 2
303.14 K, 1037 kPa | 723 ± 2
303.14 K, 1220 kPa | 723.2 ± 2
303.14 K, 1295 kPa | 723.2 ± 2
303.14 K, 1434 kPa | 723.4 ± 2
303.14 K, 1467 kPa | 723.4 ± 2
303.14 K, 1497 kPa | 723.4 ± 2
303.14 K, 1538 kPa | 723.5 ± 2
303.14 K, 1586 kPa | 723.5 ± 2
303.14 K, 1619 kPa | 723.4 ± 2
303.14 K, 1670 kPa | 723.5 ± 2
303.14 K, 1705 kPa | 723.5 ± 2
303.14 K, 1760 kPa | 723.6 ± 2
303.14 K, 1816 kPa | 723.7 ± 2
303.14 K, 1856 kPa | 723.7 ± 2
303.14 K, 1904 kPa | 723.8 ± 2
303.14 K, 1955 kPa | 723.9 ± 2
303.14 K, 1986 kPa | 724 ± 2
303.14 K, 2021 kPa | 723.9 ± 2
303.14 K, 2067 kPa | 723.9 ± 2
303.14 K, 2099 kPa | 723.9 ± 2
303.14 K, 2132 kPa | 723.9 ± 2
303.14 K, 2177 kPa | 724 ± 2
303.14 K, 2229 kPa | 724 ± 2
303.14 K, 2270 kPa | 723.9 ± 2
303.14 K, 2320 kPa | 724.1 ± 2
303.14 K, 2376 kPa | 724.2 ± 2
303.14 K, 2415 kPa | 724.1 ± 2
303.14 K, 2455 kPa | 724.1 ± 2
303.14 K, 2518 kPa | 724.3 ± 2
303.14 K, 2560 kPa | 724.3 ± 2
303.14 K, 2611 kPa | 724.3 ± 2
303.14 K, 2680 kPa | 724.4 ± 2
303.14 K, 2736 kPa | 724.4 ± 2
303.14 K, 2782 kPa | 724.5 ± 2
303.14 K, 2818 kPa | 724.6 ± 2
303.14 K, 2834 kPa | 724.6 ± 2
303.14 K, 3457 kPa | 725 ± 2
303.14 K, 3518 kPa | 725.1 ± 2
303.15 K, 1065 kPa | 723 ± 2
303.15 K, 1099 kPa | 723.2 ± 2
303.15 K, 1144 kPa | 723.2 ± 2
303.15 K, 1175 kPa | 723.2 ± 2
303.15 K, 1261 kPa | 723.3 ± 2
303.15 K, 1325 kPa | 723.2 ± 2
303.15 K, 1363 kPa | 723.2 ± 2
303.15 K, 1385 kPa | 723.3 ± 2
303.15 K, 2849 kPa | 724.6 ± 2
303.15 K, 2899 kPa | 724.6 ± 2
303.15 K, 2942 kPa | 724.7 ± 2
303.15 K, 2968 kPa | 724.7 ± 2
303.15 K, 3005 kPa | 724.8 ± 2
303.15 K, 3039 kPa | 724.6 ± 2
303.15 K, 3070 kPa | 724.7 ± 2
303.15 K, 3105 kPa | 724.8 ± 2
303.15 K, 3140 kPa | 724.8 ± 2
303.15 K, 3167 kPa | 724.9 ± 2
303.15 K, 3207 kPa | 724.8 ± 2
303.15 K, 3250 kPa | 724.9 ± 2
303.15 K, 3283 kPa | 725 ± 2
303.15 K, 3333 kPa | 724.9 ± 2
303.15 K, 3363 kPa | 725 ± 2
303.15 K, 3400 kPa | 725 ± 2
303.15 K, 3487 kPa | 725.1 ± 2
303.15 K, 3503 kPa | 724.9 ± 2
303.15 K, 3530 kPa | 725.1 ± 2
303.15 K, 3542 kPa | 725 ± 2
303.15 K, 3556 kPa | 725.2 ± 2
303.15 K, 3568 kPa | 725.1 ± 2
303.15 K, 3587 kPa | 725.2 ± 2
303.15 K, 3606 kPa | 725.2 ± 2
303.15 K, 3618 kPa | 725.1 ± 2
303.15 K, 3637 kPa | 725.3 ± 2
303.15 K, 3655 kPa | 725.2 ± 2
303.15 K, 3668 kPa | 725.4 ± 2
303.15 K, 3688 kPa | 725.3 ± 2
303.15 K, 3707 kPa | 725.2 ± 2
303.15 K, 3720 kPa | 725.3 ± 2
303.15 K, 3735 kPa | 725.3 ± 2
303.15 K, 3753 kPa | 725.3 ± 2
303.15 K, 3770 kPa | 725.3 ± 2
303.15 K, 3790 kPa | 725.3 ± 2
303.15 K, 3808 kPa | 725.3 ± 2
303.15 K, 3820 kPa | 725.3 ± 2
303.15 K, 3840 kPa | 725.4 ± 2
303.15 K, 3855 kPa | 725.4 ± 2
303.15 K, 3871 kPa | 725.3 ± 2
303.15 K, 3885 kPa | 725.3 ± 2
303.15 K, 3902 kPa | 725.5 ± 2
303.15 K, 3916 kPa | 725.5 ± 2
303.15 K, 3938 kPa | 725.5 ± 2
303.15 K, 3958 kPa | 725.4 ± 2
303.15 K, 3974 kPa | 725.4 ± 2
303.15 K, 3988 kPa | 725.4 ± 2
303.15 K, 4013 kPa | 725.5 ± 2
303.15 K, 4029 kPa | 725.5 ± 2
303.15 K, 4042 kPa | 725.6 ± 2
303.15 K, 4059 kPa | 725.5 ± 2
303.15 K, 4074 kPa | 725.5 ± 2
303.15 K, 4089 kPa | 725.6 ± 2
303.15 K, 4104 kPa | 725.6 ± 2
303.15 K, 4122 kPa | 725.6 ± 2
303.15 K, 4137 kPa | 725.5 ± 2
303.15 K, 4153 kPa | 725.7 ± 2
303.15 K, 4172 kPa | 725.7 ± 2
303.15 K, 4188 kPa | 725.7 ± 2

From the NIST ThermoML archive (doi:10.1021/je800110r)
